Data taken from patent US5342922A, “Inhibitors of retroviral protease” (Washington University, priority 1989, dated 1994).
Read-outs that look alike come from different tables or passages of the source. Numbered stars: 1 amine (or outer) side, 2 acyl side, 3 side chain; on linkers, the order of the positions; unused ones are H or OH. Square brackets hold non-standard residues; d marks the D form. Peptide text beside a SMILES is read from it. LeuΨ(CH2N)Pro = CC(C)C[C@@H](CN1CCC[C@H]1C(=O)[*:2])N[*:1]; X1 = O=C([C@@H]1CCCN1C[C@H](Cc1ccc(O)cc1)N[*:1])[*:2]; X2 = O=C([C@@H]1CCCN1C[C@H](Cc1ccccc1)N[*:1])[*:2]; X3 = CCCC[C@@H](CN(C)[C@@H](CCCC)C(=O)[*:2])N[*:1]; X4 = C[C@@H](CN1CCC[C@H]1C(=O)[*:2])N[*:1]

Legend:
HIV protease [1] = target: T1, HIV protease (Human immunodeficiency virus type 1 group M subtype B, UniProt P04585); assay: HIV protease assay, inhibition of cleavage of acetyl-Thr-Ile-Met-Met-Gln-Arg-NH2 (HPLC); format: biochemical, HIV-1
HIV protease [2] = target: T1, HIV protease; assay: HIV protease assay, substrate cleavage (relative hydrolysis rates, Km, Vmax); format: biochemical, HIV-1; conditions: for Relative Rate: percent of standard substrate concentration cleaved in twenty minutes, relative to Ac-Thr-Ile-Met-Met-Gln-Arg-NH2 = 1.00
HIV protease [3] = target: T1, HIV protease; conditions: Darke et al. 1988, cited from earlier work
[4] = system: CD4+ human lymphocyte cells (H9 cells); conditions: preliminary
[5] = affinities not fully characterized, classified by comparative inhibition studies, read-out: KI (affinity category)
[6] = in vitro inhibition of HIV protease, pH 6.5, 25°, read-out: KI

Molecule | Ki (HIV protease [1]; [5]) [µM] | further results
CCCC[C@@H](CN[C@@H](CC1CCCCC1)C(=O)N[C@@H](CCC(N)=O)C(=O)N[C@@H](CCCNC(=N)N)C(N)=O)NC(=O)[C@@H](NC(=O)[C@@H](NC(C)=O)[C@@H](C)O)[C@@H](C)CC [Ac--Thr--Ile--Nle-.PSI.[CH2 NH]--Cha--Gln--Arg--NH2] | < 1 | –
CCCC[C@@H](CN[C@@H](Cc1ccccc1)C(=O)N[C@@H](CCC(N)=O)C(=O)N[C@@H](CCCNC(=N)N)C(N)=O)NC(=O)[C@@H](NC(=O)[C@@H](NC(C)=O)[C@@H](C)O)[C@@H](C)CC [Ac--Thr--lle--Nle-.PSI.[CH2 NH]--Phe--Gln--Arg--NH2] | < 1 | –
CC(=O)N[C@@H](CC(C)C)C(=O)N[C@@H](C)C(=O)N[C@@H](C)CN1CCC[C@H]1C(=O)N[C@@H](CCC(N)=O)C(=O)N[C@@H](Cc1ccccc1)C(N)=O [Ac--Leu--Ala--Ala-.PSI.[CH2 N]--Pro--Gln--Phe--NH2] (Ac-LA[X4]QF-NH2) | > 100 | –
CCCC[C@@H](CN[C@@H](CC(C)C)C(=O)N[C@@H](CCC(N)=O)C(=O)N[C@@H](CCCNC(=N)N)C(N)=O)NC(=O)[C@@H](NC(=O)[C@@H](NC(C)=O)[C@@H](C)O)[C@@H](C)CC [Ac--Thr--lle--Nle-.PSI.[CH2 NH]--Leu--Gln--Arg--NH2] | < 1 | –
Ac--Thr--Ile--Nle--Hle--Gln--Arg--NH2 | – | Relative Rate (HIV protease [2]): 0.95
CC[C@H](C)[C@H](NC(=O)[C@@H]1CCCN1C[C@H](Cc1ccccc1)NC(=O)[C@H](CC(N)=O)NC(=O)[C@H](CC(C)C)NC(C)=O)C(=O)N[C@@H](CO)C(=O)O [Ac--Leu--Asn--Phe-.psi.[CH2 N]--Pro--Ile--Ser--OH] (Ac-LN[X2]IS-OH) | 1 to 100 | –
Ac-QNYPIV-NH2 [Ac--Gln--Asn--Tyr--Pro--Ile--Val--NH2] | – | Relative Rate (HIV protease [2]): 0.04
QNY-PIV | – | cleavage by HIV protease (HIV protease [3]): failed to be cleaved
acetyl-QNY-PIV | – | cleavage by HIV protease (HIV protease [3]): failed to be cleaved
CCCC[C@@H](CN[C@@H](CCCC)C(=O)N[C@@H](CCC(N)=O)C(=O)N[C@@H](CCCNC(=N)N)C(N)=O)NC(=O)[C@@H](NC(=O)[C@@H](NC(C)=O)[C@@H](C)O)[C@@H](C)CC [Ac--Thr--Ile--Nle-.PSI.[CH2 NH]--Nle--Gln--Arg--NH2] | – | toxicity as measured by cell count [4]: no apparent toxicity
CC[C@H](C)[C@H](NC(=O)[C@@H](NC(C)=O)[C@@H](C)O)C(=O)N[C@H](CN[C@@H](CC(C)C)C(=O)N[C@@H](CCC(N)=O)C(=O)N[C@@H](CCCNC(=N)N)C(N)=O)CC(C)C [Ac--Thr--lle--Leu-.PSI.[CH2 NH]--Leu--Gln--Arg--NH2] | – | Ki (HIV protease [1]; [6]): 0.734 µM
CC[C@H](C)[C@H](NC(=O)[C@@H]1CCCN1C[C@H](Cc1ccccc1)NC(=O)[C@H](CC(N)=O)NC(=O)[C@H](CC(C)C)NC(=O)[C@@H](N)[C@@H](C)O)C(=O)N[C@@H](CO)C(=O)O [H2 N--Thr--Leu--Asn--Phe-.PSI.[CH2 N]--Pro--Ile--Ser--OH] (H-TLN[X2]IS-OH) | 1 to 100 | –
CCCC[C@@H](CN[C@@H](CCCC)C(=O)N[C@@H](CCC(N)=O)C(=O)N[C@@H](CCC)C(N)=O)NC(=O)[C@@H](NC(=O)[C@@H](NC(C)=O)[C@@H](C)O)[C@@H](C)CC [Ac--Thr--Ile--Nle-.PSI.[CH2 NH]--Nle--Gln--Nva--NH2] | 1 to 100 | –
CCCC[C@@H](CN[C@H](C(=O)N[C@@H](CCC(N)=O)C(=O)N[C@@H](CCCNC(=N)N)C(N)=O)[C@@H](C)CC)NC(=O)[C@@H](NC(=O)[C@@H](NC(C)=O)[C@@H](C)O)[C@@H](C)CC [Ac--Thr--Ile--Nle-.PSI.[CH2 NH]--Ile--Gln--Arg--NH2] | < 1 | –
CCCC[C@@H](CNC1(C(=O)N[C@@H](CCC(N)=O)C(=O)N[C@@H](CCCNC(=N)N)C(N)=O)CCCC1)NC(=O)[C@@H](NC(=O)[C@@H](NC(C)=O)[C@@H](C)O)[C@@H](C)CC [Ac--Thr--lle--Nle-.PSI.[CH2 NH]--Cle--Gln--Arg--NH2] | > 100 | –
CCCC[C@@H](CN(C)[C@@H](CCCC)C(=O)N[C@@H](CCC(N)=O)C(=O)N[C@@H](CCCNC(=N)N)C(N)=O)NC(=O)[C@@H](NC(=O)[C@@H](NC(C)=O)[C@@H](C)O)[C@@H](C)CC [Ac--Thr--Ile--Nle-.psi.[CH2 NH]--MeNle--Gln--Arg--NH2] (Ac-TI[X3]QR-NH2) | > 100 | –
CC(C)C[C@@H](CN1CCC[C@H]1C(=O)N[C@H](C(=O)N[C@@H](C)C(=O)O)C(C)C)NC(=O)[C@H](CC(N)=O)NC(=O)[C@H](CC(C)C)NC(=O)[C@@H](N)CO [H2 N--Ser--Leu--Asn--Leu-.PSI.[CH2 N]--Pro--Val--Ala--OH] (H-SLN[LeuΨ(CH2N)Pro]VA-OH) | – | Ki (HIV protease [1]; [6]): 13.1 µM
CCCC[C@@H](CN[C@@H](CCCC)C(=O)N[C@@H](CCC(N)=O)C(=O)N[C@H](CCCNC(=N)N)C(N)=O)NC(=O)[C@@H](NC(=O)[C@@H](NC(C)=O)[C@@H](C)O)[C@@H](C)CC [Ac--Thr--Ile--Nle-.PSI.[CH2 NH]--Nle--Gln--D--Arg--NH2] | 1 to 100 | –
SQNY-PIV | – | cleavage rate relative to the octapeptide (HIV protease [3]; of the rate of VSQNYPIV): 90%
CC[C@H](C)[C@H](NC(=O)[C@H](CCC(N)=O)NC(=O)[C@@H]1CCCN1C[C@H](Cc1ccccc1)NC(=O)[C@H](CC(N)=O)NC(=O)[C@H](Cc1ccccc1)NC(C)=O)C(N)=O [Ac--Phe--Asn--Phe-.PSI.[CH2 N]--Pro--Gln--Ile--NH2] (Ac-FN[X2]QI-NH2) | 1 to 100 | –
Ac-TIMMQR-NH2 [Ac--Thr--Ile--Met--Met--Gln--Arg--NH2] | – | Relative Rate (HIV protease [2]): 1.00; Vmax (HIV protease [2]; substrate of HIV protease): 725 nmol/min/mg
CC[C@H](C)[C@H](NC(=O)[C@@H]1CCCN1C[C@H](Cc1ccc(O)cc1)NC(=O)[C@H](CC(N)=O)NC(=O)[C@H](CCC(N)=O)NC(C)=O)C(=O)N[C@H](C(N)=O)C(C)C [Ac--Gln--Asn--Tyr-.PSI.[CH2 N]--Pro--Ile--Val--NH2] (Ac-QN[X1]IV-NH2) | – | Ki (HIV protease [1]; [6]): 17.2 µM; toxicity as measured by cell count [4]: no apparent toxicity
CCCC[C@@H](CN[C@@H](CCCC)C(=O)N[C@@H](CCC(N)=O)C(=O)N[C@@H](CCCNC(=N)N)C(N)=O)NC(=O)[C@@H](NC(=O)[C@H](NC(C)=O)[C@H](C)O)[C@@H](C)CC [Ac--D--Thr--Ile--Nle-.PSI.[CH2 NH]--Nle--Gln--Arg--NH2] | 1 to 100 | –
SQNY-PI | – | cleavage by HIV protease (HIV protease [3]): failed to be cleaved
VSQNYPIV | – | Km (HIV protease [3]): 2500 µM
CCCC[C@@H](CN[C@@H](CCCC)C(=O)N[C@H](C(=O)N[C@H](C(N)=O)[C@@H](C)O)[C@@H](C)CC)NC(=O)[C@H](CCC(N)=O)NC(=O)[C@H](CCCNC(=N)N)NC(C)=O [Ac--Arg--Gln--Nle-.PSI.[CH2 NH]--Nle--Ile--Thr--NH2] | 1 to 100 | –
CC(=O)NCC(=O)N[C@@H](CC(N)=O)C(=O)N[C@@H](Cc1ccc(O)cc1)CN1CCC[C@H]1C(=O)N[C@H](C(=O)N[C@@H](CCC(N)=O)C(N)=O)C(C)C [Ac--Gly--Asn--Tyr-.PSI.[CH2 N]--Pro--Val--Gln--NH2] (Ac-GN[X1]VQ-NH2) | 1 to 100 | –
CC[C@H](C)[C@H](NC(=O)[C@H](CCC(N)=O)NC(=O)[C@@H]1CCCN1C[C@H](Cc1ccccc1)NC(=O)[C@H](CC(N)=O)NC(=O)[C@H](Cc1ccccc1)NC(=O)[C@H](CO)NC(C)=O)C(N)=O [Ac--Ser--Phe--Asn--Phe-.PSI.[CH2 N]--Pro--Gln--Ile--NH2] (Ac-SFN[X2]QI-NH2) | 1 to 100 | –
CCCC[C@@H](CN[C@@H](CCCC)C(=O)N[C@@H](CCC(N)=O)C(N)=O)NC(=O)[C@@H](NC(=O)[C@@H](NC(C)=O)[C@@H](C)O)[C@@H](C)CC [Ac--Thr--Ile--Nle-.PSI.[CH2 NH]--Nle--Gln--NH2] | 1 to 100 | –
Aba--Thr--Ile--Nle--PnF--Gln--Arg--NH2 | – | Relative Rate (HIV protease [2]): 1.46
